Source: PubChem BioAssay (NCI)
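Cells were grown in 96-well plates and exposed to each compound for 48 hours at five concentrations; endpoints were interpolated linearly between bracketing concentrations, or set to the highest concentration if not reached. GI50 marks 50% less growth. TGI denotes the concentration required for complete inhibition of growth.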

Columns and labels:
Assay in all cases: inhibition of tumour cell growth, NCI panel, 48 h
A498 renal = system: A498 renal
COLO 205 colon = system: COLO 205 colon
HCT-15 colon = system: HCT-15 colon
HL-60(TB) leukemia = system: HL-60(TB) leukemia
K-562 leukemia = system: K-562 leukemia
MDA-MB-435 = system: MDA-MB-435
NCI-H226 lung = system: NCI-H226 lung
NCI-H23 lung = system: NCI-H23 lung
SF-295 CNS = system: SF-295 CNS
SN12C renal = system: SN12C renal

| Structure (SMILES) | TGI (A498 renal) [µM] | TGI (COLO 205 colon) [µM] | TGI (HCT-15 colon) [µM] | TGI (HL-60(TB) leukemia) [µM] | TGI (K-562 leukemia) [µM] | TGI (MDA-MB-435) [µM] | TGI (NCI-H226 lung) [µM] | TGI (NCI-H23 lung) [µM] | TGI (SF-295 CNS) [µM] | TGI (SN12C renal) [µM] | GI50 (A498 renal) [µM] | GI50 (COLO 205 colon) [µM] | GI50 (HCT-15 colon) [µM] | GI50 (HL-60(TB) leukemia) [µM] | GI50 (K-562 leukemia) [µM] | GI50 (MDA-MB-435) [µM] | GI50 (NCI-H226 lung) [µM] | GI50 (NCI-H23 lung) [µM] | GI50 (SN12C renal) [µM] |
| --- | --- | --- | --- | --- | --- | --- | --- | --- | --- | --- | --- | --- | --- | --- | --- | --- | --- | --- | --- |
| COc1ccc(N=C/C=C/Nc2ccc(OC)cc2)cc1 | 27.2 | 16.3 | 14.9 | 8.45 | 31 | 24 | 32.6 | 41.2 | 21.6 | 8.86 | – | – | – | – | – | – | – | – | – |
| Cc1nc2ccccc2n1CCc1nc2ccccc2s1 | > 100 | > 100 | > 100 | 60.8 | > 100 | > 100 | 42.9 | > 100 | > 100 | > 100 | – | – | – | – | – | – | – | – | – |
| NNC(=O)c1ccccc1NC(=O)/C(=C/c1ccccc1)NC(=O)c1ccccc1 | > 100 | > 100 | > 100 | > 100 | > 100 | > 100 | > 100 | > 100 | > 100 | > 100 | – | – | – | – | – | – | – | – | – |
| O=S1(=O)c2ccccc2N2CCCc3cc(Cl)cc1c32 | > 100 | > 100 | > 100 | > 100 | > 100 | > 100 | > 100 | – | 95 | > 100 | – | – | – | – | – | – | – | – | – |
| COc1ccc(-c2cc(-c3ccc(Nc4ccnc5cc(Cl)ccc45)cc3)nc(N)c2C#N)c2ccccc12 | > 100 | > 100 | > 100 | – | > 100 | > 100 | > 100 | > 100 | > 100 | > 100 | – | – | – | – | – | – | – | – | – |
| Cc1cc2ccccc2c[n+]1CC(=O)CC([O-])(C(F)(F)F)C(F)(F)F | > 100 | > 100 | > 100 | > 100 | > 100 | > 100 | > 100 | > 100 | > 100 | > 100 | – | – | – | – | – | – | – | – | – |
| COC(=O)c1c(O)ccc2c1c1c(n2C)C(=O)c2ccccc2C1=O | > 100 | > 100 | > 100 | > 100 | > 100 | > 100 | > 100 | 78.2 | 65.6 | > 100 | – | – | – | – | – | – | – | – | – |
| CC1(C)N=C(N)N=C(N)N1c1cccc(CSc2ccccc2)c1 | > 100 | 29.1 | > 100 | 13.3 | > 100 | > 100 | > 100 | > 100 | > 100 | > 100 | – | – | – | – | – | – | – | – | – |
| O=C1CC(c2cccc(Cl)c2)n2cccc21 (stereo unspecified) | > 100 | > 100 | > 100 | 92.7 | > 100 | > 100 | > 100 | > 100 | > 100 | > 100 | – | – | – | – | – | – | – | – | – |
| CCCN(CCC)c1c([N+](=O)[O-])cc(S(N)(=O)=O)cc1[N+](=O)[O-] | – | 43.1 | 32.2 | – | 35.7 | – | 42.7 | 32.3 | 32.3 | 31.6 | – | – | – | – | – | – | – | – | – |
| O=c1[nH]cnc2c1ncn2[C@H]1CO[C@@H](CO)[C@@H]1O | > 100 | > 100 | > 100 | – | > 100 | > 100 | > 100 | > 100 | > 100 | > 100 | – | – | – | – | – | – | – | – | – |
| Brc1ccc2c(c1)C1=C(CO2)Cc2ccccc2O1 | 45.2 | 31.5 | 38.4 | – | > 100 | 45.1 | 40.1 | 32.5 | 35.4 | 33 | – | – | – | – | – | – | – | – | – |
| O=C(c1ccco1)N(C(=S)N1CCN(c2ccccc2)CC1)c1ccccc1 | – | > 100 | > 100 | > 100 | > 100 | – | > 100 | > 100 | > 100 | > 100 | – | – | – | – | – | – | – | – | – |
| CCCCCC(C)C[C@H]1CO[C@H](c2ccc[nH]2)N[C@H]1C(=O)OC (stereo partly specified) | > 100 | > 100 | > 100 | > 100 | – | > 100 | – | > 100 | > 100 | > 100 | – | – | – | – | – | – | – | – | – |
| O=C(O)C(Cc1cccs1)C(=O)O | > 100 | > 100 | > 100 | > 100 | > 100 | > 100 | > 100 | > 100 | – | > 100 | – | – | – | – | – | – | – | – | – |
| Nc1nc(N)c2ncn(CC(CO)CC(c3ccccc3)P(=O)(O)O)c2n1 (stereo unspecified) | > 100 | > 100 | > 100 | > 100 | > 100 | – | > 100 | > 100 | > 100 | > 100 | – | – | – | – | – | – | – | – | – |
| CN(C)Cc1cc(C(=O)/C=C/c2ccc(/C=C/C(=O)c3cc(CN(C)C)c(O)c(CN(C)C)c3)cc2)cc(CN(C)C)c1O | > 100 | 28.2 | > 100 | 98 | > 100 | 79.7 | – | 55.7 | > 100 | 76 | – | – | – | – | – | – | – | – | – |
| COc1ccc(-c2cn3ccnc3c(-c3ccc4ncn(C5CCCCC5)c4c3)n2)cc1 | > 100 | 14.4 | > 100 | 5.05 | > 100 | > 100 | > 100 | > 100 | – | > 100 | 0.742 | 2.22 | 0.722 | 1.06 | 0.422 | 0.312 | 2.97 | 2.11 | 2.11 |
| COc1cccc(/C=C/C2=NN(c3cccc(S(=O)(=O)O)c3)C3(C2)SCC(=O)N3c2nc3ccccc3s2)c1 (stereo unspecified) | > 100 | > 100 | > 100 | > 100 | > 100 | 66.6 | > 100 | > 100 | – | > 100 | – | – | – | – | – | – | – | – | – |
| CC(NCCS(=O)(=O)O)C(=O)O (stereo unspecified) | > 100 | > 100 | > 100 | > 100 | > 100 | – | > 100 | > 100 | > 100 | > 100 | – | – | – | – | – | – | – | – | – |
| O=C1CC(O)c2c(Cl)sc(Cl)c21 (stereo unspecified) | 42.6 | 14.6 | 11.3 | – | > 28.7 | > 47.7 | 36.6 | 35.6 | > 59.3 | > 48.6 | – | – | – | – | – | – | – | – | – |
